Results as given in patent US20110144045A1, “USE OF FUMAGILLIN AND THE DERIVATIVES THEREOF TO INCREASE THE BIOAVAILABILITY OF THE MACROCYCLIC LACTONES” (INSTITUT NATIONAL DE LA RECHERCHE AGRONOMIQUE, priority 2005, published 2011).

Key:
murine Pgp = murine Pgp (Mus musculus, UniProt P21447); test: Intracellular accumulation of rhodamine 123 in Mdr1a-LLCPK1 cells (Pgp transport function); type: cell-based
Experimental: (§1) They are cultured for 48 hours at 37° C. to reach confluence in 1 ml of medium without G418. The medium is eliminated and the cells washed with 0.5 ml PBS 1×. […] The cells are lysed by the addition of 0.3 ml PBS 1×/0.5% sodium dodecyl sulphate (50/50, v/v) in each well. After 10 minutes at ambient temperature, 0.3 ml PBS 1× is added to each well then the total lysate (0.6 ml) is transferred to a 2-ml plastic tube and stored at −20° C. until it is analyzed by spectrofluorometry.
(§2) The results obtained were modelled according to the Hill model (Scientist software, Micromath research, Saint Louis, USA).

rat hepatocytes [1] = test: Intracellular quantity of 14C moxidectin in primary-cultured rat hepatocytes +/- fumagillin; type: cell-based
Experimental: The isolation and culturing of rat hepatocytes has been described previously (Dupuy et al., 2001b). The hepatocytes are distributed into culture dishes and kept at 37° C. for 12 hours (oven 5% CO2). The cells are cultured in the presence of 5 μM ^14C moxidectin (control) +/−100 μM fumagillin. After 0, 6, 24, 48 and 72 h the incubations are stopped (n=3 for each treatment), the media collected and the hepatocytes harvested by mechanical disassociation in phosphate buffer saline (PBS 1×). The media and the hepatocytes are stored at −20° C. until analysis by high-performance liquid chromatography (HPLC).
^14C moxidectin is quantified in the medium and the hepatocytes by a HPLC technique coupled with an in-line radioactivity detection (Dupuy et al., 2001b). This technique allows ^14C moxidectin and its main metabolite (C29 monohydroxyethyl moxidectin) in rat hepatocytes to be detected and quantified. The radioactivity is measured by liquid scintillation counting (Kontron Beta V counter). The total initial radioactivity of the initial medium at 5 μM ^14C moxidectin +/−100 μM fumagillin corresponds to the 100% value. Due to the concentration of moxidectin detected in the hepatocytes (ng.ml^−1) and to the initially introduced percentage of radioactivity, the time-concentration areas under the curve are calculated from the first to the last experimental point using the trapezoidal method (Gibaldi and Perrier, 1982).

murine Pgp (Mdr1a) = murine Pgp (Mdr1a) (Mus musculus, UniProt P21447); test: Intracellular accumulation of rhodamine 123 in Mdr1a-LLCPK1 cells (Pgp transport function); type: cell-based; conditions: mouse, probe rhodamine 123 (10 μM); Hill model; reached at 50 μM of fumagillin; read-out: maximum effect (Emax), Rho123 accumulation as percentage of the VSP effect
Experimental: as §1, §2

rat hepatocytes [2] = conditions: rat hepatocytes in primary culture; Dupuy et al., 2001b; 2003; cited from earlier work

murine Pgp, sequence (P21447 whole entry): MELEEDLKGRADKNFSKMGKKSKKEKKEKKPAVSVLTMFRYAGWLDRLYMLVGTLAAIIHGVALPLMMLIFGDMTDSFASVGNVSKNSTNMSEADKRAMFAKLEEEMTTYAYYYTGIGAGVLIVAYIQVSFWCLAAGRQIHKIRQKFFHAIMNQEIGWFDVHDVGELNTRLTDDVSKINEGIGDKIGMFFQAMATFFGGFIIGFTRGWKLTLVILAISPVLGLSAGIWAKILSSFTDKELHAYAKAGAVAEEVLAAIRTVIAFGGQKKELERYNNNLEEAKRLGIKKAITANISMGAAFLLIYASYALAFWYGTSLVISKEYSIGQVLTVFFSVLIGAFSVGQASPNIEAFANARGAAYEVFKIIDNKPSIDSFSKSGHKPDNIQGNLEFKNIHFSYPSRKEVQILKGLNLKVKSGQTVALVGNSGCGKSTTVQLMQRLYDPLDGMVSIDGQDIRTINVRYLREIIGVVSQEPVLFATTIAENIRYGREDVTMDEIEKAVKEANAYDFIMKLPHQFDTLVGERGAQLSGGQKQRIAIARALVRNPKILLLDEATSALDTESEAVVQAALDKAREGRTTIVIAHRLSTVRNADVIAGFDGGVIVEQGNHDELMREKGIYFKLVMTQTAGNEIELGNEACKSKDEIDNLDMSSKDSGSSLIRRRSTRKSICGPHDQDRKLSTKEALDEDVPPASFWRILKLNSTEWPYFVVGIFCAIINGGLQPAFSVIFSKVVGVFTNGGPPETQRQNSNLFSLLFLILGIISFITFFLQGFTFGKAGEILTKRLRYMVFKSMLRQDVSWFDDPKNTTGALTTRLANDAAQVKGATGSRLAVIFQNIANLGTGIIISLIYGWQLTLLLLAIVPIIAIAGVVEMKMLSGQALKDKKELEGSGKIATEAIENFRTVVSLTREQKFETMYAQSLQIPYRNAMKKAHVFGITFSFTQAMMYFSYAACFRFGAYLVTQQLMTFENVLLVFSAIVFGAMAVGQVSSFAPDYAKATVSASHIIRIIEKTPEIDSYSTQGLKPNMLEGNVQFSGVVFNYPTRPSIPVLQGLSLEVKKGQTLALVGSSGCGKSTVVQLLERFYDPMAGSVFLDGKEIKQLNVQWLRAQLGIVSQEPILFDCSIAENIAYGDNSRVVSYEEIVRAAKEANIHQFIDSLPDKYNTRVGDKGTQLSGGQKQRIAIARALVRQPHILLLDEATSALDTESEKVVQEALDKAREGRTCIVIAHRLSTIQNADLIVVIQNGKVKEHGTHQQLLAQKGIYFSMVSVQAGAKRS
murine Pgp (Mdr1a), sequence (P21447 whole entry): as above

For CC[C@H](C)[C@H]1O[C@]2(CC[C@@H]1C)C[C@@H]1C[C@@H](C/C=C(\C)[C@@H](O[C@H]3C[C@H](OC)[C@@H](O[C@H]4C[C@H](OC)[C@@H](O)[C@H](C)O4)[C@H](C)O3)[C@@H](C)/C=C/C=C3\CO[C@@H]4[C@H](O)C(C)=C[C@@H](C(=O)O1)[C@]34O)O2 [IVM, ivermectin], the “effect on Rho 123 accumulation relative to the effect of VSP” value (murine Pgp; 5 μM IVM, Mdr1a-LLCPK1 cells, 2 h, 10 μM Rho123) was 95%.
For CO/N=C1\C[C@]2(C[C@@H]3C[C@@H](C/C=C(\C)C[C@@H](C)/C=C/C=C4\CO[C@@H]5[C@H](O)C(C)=C[C@@H](C(=O)O3)[C@]45O)O2)O[C@H](/C(C)=C/C(C)C)[C@H]1C [Moxidectin, moxidectin], the “time of maximum quantity of intracellular moxidectin” value (rat hepatocytes [1]; rat) was 6 h, the “quantity of 14C moxidectin in cultured rat hepatocytes” value (rat hepatocytes [1]; rat, 0 h, 5 μM) was 4.5 ± 1.25 and the “quantity of 14C moxidectin in cultured rat hepatocytes” value (rat hepatocytes [1]; rat, 6 h, 5 μM) was 72.95 ± 9.98. For the same compound, the “main metabolite (C29 monohydroxyethyl) as share of the parent substance” value (rat hepatocytes [1]; rat, 24 h, 5 μM) was at most 4%, the “quantity of 14C moxidectin in cultured rat hepatocytes” value (rat hepatocytes [1]; rat, 24 h, 5 μM) was 52.60 ± 5.94 and the “quantity of 14C moxidectin in cultured rat hepatocytes” value (rat hepatocytes [1]; rat, 48 h, 5 μM) was 22.19 ± 4.00. The “quantity of 14C moxidectin in cultured rat hepatocytes” value (rat hepatocytes [1]; rat, 72 h, 5 μM) was 11.98 ± 1.30.
In the case of C/C=C/C[C@@H](C)C(=O)[C@H]1C(=O)N[C@@H](C(C)C)C(=O)N(C)CC(=O)N(C)[C@@H](CC(C)C)C(=O)N[C@@H](C(C)C)C(=O)N(C)[C@@H](CC(C)C)C(=O)N[C@@H](C)C(=O)N[C@H](C)C(=O)N(C)[C@@H](CC(C)C)C(=O)N(C)[C@@H](CC(C)C)C(=O)N(C)[C@@H](C(C)C)C(=O)N1C [VSP, Valspodar], the “Rho 123 accumulation, maximum value taken as reference” value (murine Pgp; VSP 10 μM, considered to be the maximum value by definition) is reported as 100%.
In the case of CO[C@@H]1[C@H](OC(=O)/C=C/C=C/C=C/C=C/C(=O)O)CC[C@]2(CO2)[C@H]1[C@@]1(C)O[C@@H]1CC=C(C)C [fumagillin], the Emax at 2 h, 50 μM (murine Pgp (Mdr1a)) is reported as 43.7%, the EC50 (murine Pgp; Rho123 accumulation in Mdr1a-LLCPK1, Hill model, read-out: EC50, concentration necessary to reach 50% of the maximum effect) is reported as 10 µM and the “effect on the quantity of intracellular Rho 123” value (murine Pgp; fumagillin 10 to 100 μM) is reported as “increased”. For the same compound, the “increase of the quantity of moxidectin in the hepatocytes (time-concentration area under the curve)” value (rat hepatocytes [1]; 100 μM fumagillin with 5 μM 14C moxidectin, over a period of 72 h, versus moxidectin control) was 65%.
In the case of CC(=O)N1CCN(c2ccc(OCC3COC(Cn4ccnc4)(c4ccc(Cl)cc4Cl)O3)cc2)CC1 (stereo not drawn) [ketoconazole], the “effect on the quantity of 14C moxidectin in the hepatocytes of rats” value (rat hepatocytes [2]) is given as “significantly increases”.
For O=c1c(O)c(-c2ccc(O)c(O)c2)oc2cc(O)cc(O)c12 [quercetin], the “effect on the quantity of 14C moxidectin in the hepatocytes of rats” value (rat hepatocytes [2]) is given as “significantly increases”.
